Data published in ChEMBL document CHEMBL1154822, “Synthesis and antiproliferative activity of 7-azaindirubin-3'-oxime, a 7-aza isostere of the natural indirubin pharmacophore” (J Nat Prod, 2009).

Legend:
Assay type in all cases: functional
PC-3 = assay: Cytotoxicity against human PC3 cells after 1 to 11 days by MTT assay
HT-29 = assay: Cytotoxicity against human HT-29 cells assessed as cell growth at 1 mM after 1 to 11 days by MTT assay; settings: read-out: Activity
SK-MEL-28 [1] = assay: Cytotoxicity against human SK-MEL-28 cells assessed as cell growth at 1 mM after 1 to 11 days by MTT assay; settings: read-out: Activity
MOLT-4 = assay: Cytotoxicity against human MOLT4 cells assessed as cell growth at 0.1 uM after 1 to 11 days by MTT assay; settings: read-out: Activity
HOP-92 = assay: Cytotoxicity against human HOP92 cells assessed as cell growth at 10 uM after 1 to 11 days by MTT assay; settings: read-out: Activity
UO-31 = assay: Cytotoxicity against human UO31 cells assessed as cell growth at 1 uM after 1 to 11 days by MTT assay; settings: read-out: Activity
SF-268 = assay: Cytotoxicity against human SF268 cells assessed as cell growth at 1 uM after 1 to 11 days by MTT assay; settings: read-out: Activity
MDA-MB-231 = assay: Cytotoxicity against human MDA-MB-231 cells assessed as cell growth at 1 mM after 1 to 11 days by MTT assay; settings: read-out: Activity
OVCAR-3 = assay: Cytotoxicity against human OVCAR-3 cells assessed as cell growth at 100 uM after 1 to 11 days by MTT assay; settings: read-out: Activity
SK-MEL-28 [2] = assay: Cytotoxicity against human SK-MEL-28 cells assessed as cell growth at 100 uM after 1 to 11 days by MTT assay; settings: read-out: Activity
LOX IMVI [3] = assay: Cytotoxicity against human LOXIMVI cells assessed as cell growth at 0.1 uM after 1 to 11 days by MTT assay; settings: read-out: Activity
LOX IMVI [4] = assay: Cytotoxicity against human LOXIMVI cells assessed as cell growth at 1 mM after 1 to 11 days by MTT assay; settings: read-out: Activity
UACC-62 [5] = assay: Cytotoxicity against human UACC62 cells assessed as cell growth at 10 uM after 1 to 11 days by MTT assay; settings: read-out: Activity
UACC-62 [6] = assay: Cytotoxicity against human UACC62 cells after 1 to 11 days by MTT assay
[7] = read-out: LC50 (the source's name)

O=C1Nc2ncccc2/C1=C1/Nc2ccccc2/C1=N\O was tested, and the GI50 (PC-3) was 6.82 µM, the TGI (PC-3) was > 100 µM and the CC50 (PC-3; [7]) was > 100 µM. It also gave a growth at 1000 µM (HT-29) of 48%, a growth at 1000 µM (SK-MEL-28 [1]) of 47% and a growth at 0.1 µM (MOLT-4) of 92%. It also gave a growth at 10 µM (HOP-92) of 62%, a growth at 1 µM (UO-31) of 80% and a growth at 1 µM (SF-268) of 99%. For the same molecule, the growth at 1000 µM (MDA-MB-231) was 2%, the growth at 100 µM (OVCAR-3) was 51% and the growth at 100 µM (SK-MEL-28 [2]) was 54%. The growth at 0.1 µM (LOX IMVI [3]) was 98%, the growth at 1000 µM (LOX IMVI [4]) was 30% and the growth at 10 µM (UACC-62 [5]) was 77%. For the same molecule, the GI50 (UACC-62 [6]) was 3.49 µM, the TGI (UACC-62 [6]) was > 100 µM and the CC50 (UACC-62 [6]; [7]) was > 100 µM.
